In patent US20220193039A1, “APPLICATION OF 2,4,5-TRISUBSTITUTED 1,2,4-TRIAZOLONES IN ANTIVIRAL THERAPY” (priority 2020, published 2022):
Where two headings read alike, the source gives them in different places.

Key:
Format in all cases: cell-based
[1] = test system: zika virus strain SZ-SMGC-01; experiment: Anti-zika virus activity in BHK or Vero cells (CellTiter-Glo); details: preliminary test results
Method: (1) Evaluation of anti-zika virus activity of the drug
1) BHK cells (preserved in Academy of Military Medical Sciences) or Vero cells (preserved in Academy of Military Medical Sciences) were inoculated into a 96 wells plate at a concentration of 5×10^3 cells/well for BHK cells and 1×10^4 cells/well for Vero cells, wherein the medium is DMEM (purchased from Gibco, Catalog No.: 11995065) containing 10% FBS (purchased from Gibco, Catalog No.: 16000044), and cultured for 24 hrs at 37° C. in a CO2 incubator.
(§1) 2) The culture medium in the 96-well plate was discarded, 100 μL of DMEM medium (purchased from Gibco, Catalog No.:11995065) containing 2% FBS (purchased from Gibco, Catalog No.: 16000044) was added. […] Finally, 50 μL of the zika virus strain SZ-SMGC-01 (preserved in Academy of Military Medical Sciences) diluted with DMEM medium containing 2% FBS was added to reach 100 TCID50 for each well. […]
(§2) 3) Buffer and substrate of CellTiter-Glo® Luminescent Cell Viability Assay Kit (purchased from Promega, Catalog No.:G7573) were mixed in dark as the work solution. […] After stabilizing the signal in dark for 2 min, chemiluminescence was determined by an enzyme-labeled instrument (purchased from Molecular Devices, SpectraMax M5), the plate reading program was the CellTiter-Glo preset program, and the cell viability was calculated: […]
(§3) wherein A was the reads from the enzyme-labeled instrument.

EV71 = experiment: Anti-enterovirus activity, EV71-RD; details: Enterovirus A, RD cells
[2] = test system: influenza virus A/Zhenxing1109/2010; experiment: microbe, parasite or virus in culture; details: unidentified influenza virus, MDCK, 72 h, read-out: EC50 influenza virus A/Zhenxing1109/2010 (ZX1109-MDCK)
CA16 = experiment: Anti-enterovirus activity, CA16-RD; details: RD cells
influenza virus B/Lee/40 = experiment: microbe, parasite or virus in culture; details: unidentified influenza virus, MDCK, 72 h, read-out: EC50 influenza virus B/Lee/40 (Blee-MDCK)
influenza virus A/PR/8 = experiment: microbe, parasite or virus in culture; details: unidentified influenza virus, MDCK, 72 h, read-out: EC50 influenza virus A/PR/8 (PR8-MDCK)
[3] = Cytotoxicity test of the drug on MDCK (CellTiter-Glo); details: dog, MDCK cells
Method: (2) Cytotoxicity test of the drug
1) MDCK cell (purchased from ATCC, Catalog:CCL-34) was inoculated into a 96-well plate at a concentration of 1.5×10^4 cell/well, wherein the medium is DMEM (purchased from Gibco, Catalog No.: 11995065) containing 10% FBS (purchased from Gibco, Catalog No.: 16000044), and cultured for 24 hrs at 37° C. in a CO2 incubator.
2) Before the experiment, the cells were wahsed 3 times with PBS (purchased from Gibco, Catalog No.: 10010049), 150 μL of D/F-12 medium (purchased from Gibco, Catalog No.: 11330032) containing 2 μg/mL TPCK (purchased from Sigma, Catalog No.:T1426) was added. […]
as §2, with “5” for “2”, “cytotoxicity” for “cell viability”
as §3

EVD68 = experiment: Anti-enterovirus activity, EVD68-RD; details: RD cells
bunya virus = details: preliminary test results; Huh7 cells
[4] = test system: SARS-CoV-2 (nCoV-2019BetaCoV/Wuhan/WIV04/2019 strain); experiment: microbe, parasite or virus in culture; details: for inhibition of viral RNA load in the cells: Vero E6, dose-dependent; for EC50: Severe acute respiratory syndrome coronavirus 2, Vero C1008, Vero E6 cells, viral RNA copy number, read-out: EC50 against SARS-CoV-2
CA6 = experiment: Anti-enterovirus activity, CA6-RD; details: RD cells
[5] = Cytotoxicity test of drug, CCK-8 kit; details: African green monkey; Vero E6 cells; CCK-8; 48 hours
Method: (§4) (5) Cytotoxicity test of drug
(§5) The detection of the drug cytotoxicity was performed using CCK-8 kit (Beoytime). Specific steps were as follows:
(§6) 1) 1×104 Vero E6 (ATCC) cells were placed in a 96-well plate and incubated at 37° C. for 8 hours.
(§7) 2) The drug was diluted with DMSO to an appropriate concentration of mother liquor, and then diluted with MEM medium (purchased from Gibco, Catalog No. 10370021) containing 2% FBS (purchased from Gibco, Catalog No. 16000044) to the same concentration as that for the drug treatment. The original medium in the 96-well plate was discarded, 100 μL of drug-containing MEM medium was added to the cells, and three replicate wells were prepared for each concentration. Vehicle control (DMSO and medium were added to the cell wells, without adding drug) and blank control (DMSO and medium were added to the wells, without cells) were set up. After the drug was added, the cells were cultured at 37° C. for 48 hours.
(§8) 3) 20 μL of CCK-8 solution (Beoytime) was added to the well to be tested, mixed gently, without generating bubbles, and continuously incubated at 37° C. for 2 hours. OD450 was read on a microplate reader (purchased from Molecular Devices, Model:SpectraMax M5), and cell viability was calculated:
(§9) Cell activity(%)=(A(drug treatment group)−A(blank control))/(A(vehicle control)−A(blank control))×100%
(§10) wherein A was the reading of the microplate reader.

Vero E6 cells = experiment: Cytotoxicity test of drug, CCK-8 kit; details: at below 10 μM, FIG. 1
Method: as §4, §5, §6, §7, §8, §9, §10

[6] = test system: influenza virus A/California/07/2009; experiment: microbe, parasite or virus in culture; details: unidentified influenza virus, MDCK, 72 h, read-out: EC50 influenza virus A/California/07/2009 (CA07-MDCK)
[7] = test system: influenza virus A/Hongkong/08/1968; experiment: microbe, parasite or virus in culture; details: unidentified influenza virus, MDCK, 72 h, read-out: EC50 influenza virus A/Hongkong/08/1968 (HK68-MDCK)
enterovirus strain CB3 = experiment: Anti-enterovirus activity in Vero cells (CellTiter-Glo)
Method: (1) Evaluation of anti-enterovirus activity of the drug
1) Vero cells (purchased from ATCC, Catalog No.:CCL-81) were inoculated into a 96 wells plate at a concentration of 1×10^4 cells/well, wherein the medium is DMEM (purchased from Gibco, Catalog No.: 11995065) containing 2% FBS (purchased from Gibco, Catalog No.: 16000044), and cultured for 24 hrs at 37° C. in a CO2 incubator.
as §1, with “Before” for “The culture medium in”, “experiment, the cells were wahsed 3 times with PBS (purchased from Gibco, Catalog No.: 10010049),” for “96-well plate was discarded,”, “enterovirus” for “zika virus”, “CB3” for “SZ-SMGC-01”
as §2, with “stablizing” for “stabilizing”, “3” for “2”
as §3

Vero cells = experiment: Cytotoxicity test of the drug, enterovirus example (CellTiter-Glo); details: enterovirus table; cell line not given

With `CCn1c(CO)nn(-c2cc(O[C@@H](C)C(F)(F)F)c(C(=O)Nc3c(F)cccc3Cl)cc2F)c1=O` [BAY 2402234] the “inhibitory effect on zika virus” value [1] was “had inhibitory effect”, the EC50 (EV71) was greater than 100000 nM and the EC50 [2] was 40 nM. The EC50 (CA16) was greater than 100000 nM, the EC50 (influenza virus B/Lee/40) was 30 nM and the EC50 (influenza virus A/PR/8) was 10 ± 0.3 nM. The CC50 at 72 h [3] was 270 nM, the EC50 (EVD68) was greater than 100000 nM and the “inhibitory effect on bunya virus” value (bunya virus) was “had inhibitory effect”. The “inhibition of viral RNA load in the cells” value ([4]; 24 h after infection by SARS-CoV-2, FIG. 1(a)) was “can inhibit the viral RNA load”, the “inhibition of viral RNA load in the cells” value ([4]; 48 h after infection by SARS-CoV-2, FIG. 1(b)) was “can inhibit the viral RNA load” and the EC50 ([4]; 24 hours after the infection) was 7 nM. The EC50 ([4]; 48 hours after the infection) was 2.7 nM, the “inhibition of replication of the SARS-CoV-2 virus genome in the infected supernatant” value ([4]; at 10 μM, 3.3 μM, 1.1 μM, 0.3 μM, 0.1 μM and 0.03 μM, FIG. 1) was “could effectively inhibit the replication” and the EC50 (CA6) was greater than 100000 nM. For the same molecule, the CC50 at 48 h [5] was 199000 nM, the “effect on cell viability (cytotoxicity)” value (Vero E6 cells) was “did not change the cell viability” and the EC50 [6] was 30 ± 9 nM. For the same molecule, the EC50 [7] was 7 nM, the EC50 (enterovirus strain CB3; Enterovirus, 120 h, Vero cells, 5 days) was less than 50 nM and the “inhibitory effect on enterovirus” value (enterovirus strain CB3; preliminary test results) was “had inhibitory effect”. For the same molecule, the CC50 (Vero cells) was greater than 300000 nM.
